Laboratory results taken from patent US20200405659A1, “COMPOSITION CONTAINING 2,3-BUTANEDIOL AS ACTIVE INGREDIENT” (GS CALTEX CORPORATION, priority 2018, published 2020).

Tests used:
collagenase (MMP-1) = experiment: Collagenase (MMP-1) content in CCD-986SK cells (Human MMP-1 ELISA kit); format: cell-based; conditions: for Collagenase (MMP-1)(pg/mL) / MMP-1 content relative to untreated control (%): 48 hours; for MMP-1 content relative to untreated control (%): specimen-free = 100.00, decreased percent means collagenase restrained; for restraining effects of collagenase: compared with the Comparative Examples using 1,3-butanediol or 1,3-propanediol
Method: The anti-wrinkle effects of 2,3-butanediol were evaluated as the restraining effects of the decomposition of interstitial collagen, etc., by decreasing skin collagenase (for example, MMP-1).
To evaluate the anti-wrinkle effects of 2,3-butanediol, serum-free mediums composed of 99 mL of Dulbecco's modified eagle medium (Gibco) and 1 mL of Penicillin-streptomycin (Gibco), diluted with 2R,3S-butanediol, 2R,3R-butanediol, 1,3-butanediol and 1,3-propanediol in the concentrations shown in Table 3 below, were prepared.
In addition, cells CCD-986SK (ACTT CRL-6323™) were seeded in well plates by 1 mL with 5×10^4, and cultivated at 37° C. in a 5% CO2 cultivator for 24 hours. The cultivated cells were replaced with the mediums of the Examples and Comparative Examples and cultivated at 37° C. in a 5% CO2 cultivator for 48 hours.
A cell dissolution material was recovered, the protein content was measured using BSA protein assay reagent kit (Thermo scientific PIERCE, USA), the collagenase (MMP-1) content was measured suing Human MMP-1 ELISA kit (Sigma), and the results are shown in Table 4 below.
That is, the decreased percent calculated means that collagenase is effectively restrained.

[1] = DPPH free radical elimination activity (anti-oxidation ratio); conditions: for change of anti-oxidation ratio with the increase of the concentration: from 0.1 wt % to 1 wt %
Method: To evaluate the anti-oxidative effects of 2,3-butanediol, the elimination activity of free radicals was measured using a 2,2-diphenyl-1-picrylhydrazyl (DPPH) analysis method. Particularly, an anti-oxidation ratio was calculated by Equation 2 below.
Anti-oxidation ratio (%)=[[(absorbance of specimen treated group−absorbance of specimen untreated group)/(absorbance of negative control group−absorbance of specimen untreated group)]×100 [Equation 2]
i) specimen untreated group: group allowing reaction of ultrapure water and methanol
ii) specimen treated group: group allowing reaction of specimen by each concentration and DPPH
iii) negative control group: group allowing reaction of ultrapure water and DPPH
According to the concentration shown in Table 2 below, diols were diluted with a methanol solvent to prepare specimens, and each specimen was reacted with DPPH, and absorbance was measured, and the anti-oxidation ratios calculated are shown in Table 2 below.

| SMILES | Collagenase (MMP-1)(pg/mL) (collagenase (MMP-1); 0.50 wt % in serum-free medium) | MMP-1 content relative to untreated control (%) (collagenase (MMP-1); 0.50 wt %) | Anti-oxidation ratio (%) ([1]; 0.1 wt % in methanol) | Anti-oxidation ratio (%) ([1]; 0.5 wt % in methanol) | Anti-oxidation ratio (%) ([1]; 1.0 wt % in methanol) | change of anti-oxidation ratio with the increase of the concentration [1] | Collagenase (MMP-1)(pg/mL) (collagenase (MMP-1); 0.05 wt % in serum-free medium) | MMP-1 content relative to untreated control (%) (collagenase (MMP-1); 0.05 wt %) | Collagenase (MMP-1)(pg/mL) (collagenase (MMP-1); 0.10 wt % in serum-free medium) | MMP-1 content relative to untreated control (%) (collagenase (MMP-1); 0.10 wt %) | Collagenase (MMP-1)(pg/mL) (collagenase (MMP-1); 1.00 wt % in serum-free medium) | MMP-1 content relative to untreated control (%) (collagenase (MMP-1); 1.00 wt %) | restraining effects of collagenase (collagenase (MMP-1)) | production of collagenase (collagenase (MMP-1); concentration of 1 wt %) |
| --- | --- | --- | --- | --- | --- | --- | --- | --- | --- | --- | --- | --- | --- | --- |
| CC(O)CCO (stereo not shown) [1,3-butanediol] | 569.1 | 90.82 | 2.89 | 1.46 | 1.00 | rather decreased | – | – | – | – | – | – | – | – |
| OCCCO [1,3-propanediol] | 602.9 | 94.23 | 5.34 | 2.17 | −1.23 | rather decreased | – | – | – | – | – | – | – | – |
| C[C@@H](O)[C@@H](C)O [2R,3R-butanediol] | 327.7 | 50.73 | – | – | – | – | 390.9 | 56.16 | 443.0 | 63.45 | 159.1 | 27.29 | markedly increased | markedly reduced |
| C[C@H](O)[C@@H](C)O [2R,3S-butanediol] | 324.2 | 56.69 | 2.23 | 3.95 | – | increased | 370.2 | 60.78 | 364.7 | 59.80 | 321.4 | 62.63 | markedly increased | – |
